Active and inactive are the calls of the source. The calls are words filed in the database; no cut-off is given here.

The species entered for assay [1] is Homo sapiens. Put plainly: Kinetic constant for purified human milk alpha(1,3/4) fucosyltransferase.
The species named for assay [2] is Homo sapiens. The assay is described as follows: Potency against purified human milk alpha(1,3/4) fucosyltransferase; IA inactive.

Broadly, the Km is the concentration of substrate that gives half-maximal velocity. With `COC(=O)CCCCCCCCOC1OC(CO)C(SC2OC(CO)C(O)C(O)C2O)C(O)C1NC(C)=O` (configuration not stated), in assay [1], the Michaelis-Menten constant (Km) was determined as 230 µM.

For the compound `COC(=O)CCCCCCCCOC1OC(CO)C(OC2SC(CO)C(O)C(O)C2O)C(O)C1NC(C)=O` (configuration not stated), in assay [2], the Potency entry is “inactive”.

The values above are taken from ChEMBL document CHEMBL1130671, “beta Gal(1-->S-4)beta GlcNac--OR: a galactosidase-stable substrate for alpha(1-->3)fucosyltransferase” (Bioorg Med Chem Lett, 1998).
